Our source for the EC50 values is PMC5972582, “Bidirectional GPR119 Agonism Requires Peptide YY and Glucose for Activity in Mouse and Human Colon Mucosa” (Endocrinology, 2018).

This experiment deals with T1, GPR119 (WT mouse descending colon mucosa) (Mus musculus, UniProt Q7TQP3).
T1 construct: native full-length receptor in L-cells of intact mouse colonic mucosa (Ussing chamber); no recombinant protein
T1 sequence (Q7TQP3 1-335): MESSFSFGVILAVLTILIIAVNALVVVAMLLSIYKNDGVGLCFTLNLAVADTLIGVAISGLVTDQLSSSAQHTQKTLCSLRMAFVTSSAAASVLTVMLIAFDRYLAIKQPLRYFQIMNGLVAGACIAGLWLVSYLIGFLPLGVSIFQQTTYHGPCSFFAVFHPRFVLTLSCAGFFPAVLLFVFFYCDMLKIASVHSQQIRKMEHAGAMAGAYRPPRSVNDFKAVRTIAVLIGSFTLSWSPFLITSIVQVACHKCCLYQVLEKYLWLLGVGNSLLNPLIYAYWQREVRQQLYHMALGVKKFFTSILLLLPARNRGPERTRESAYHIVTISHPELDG
Kind of experiment: short-circuit current (Isc) in native mouse descending colon mucosa, Ussing chamber. The conditions noted are these: agonist, apical addition, indirect tissue read-out (PYY-mediated fall in Isc) after 10 nM VIP, 11.1 mM glucose. The text has this: short-circuit current (Isc) in native mouse descending colon mucosa, Ussing chamber on GPR119 (WT mouse descending colon mucosa)

With AR440006, the half-maximal effective concentration (EC50) came out at 170 nM.

For `CCCCCCCC/C=C\CCCCCCCC(=O)NCCO` [OEA], the concentration giving a half-maximal response (EC50) came to 14700 nM.

With AR435707, the concentration giving a half-maximal response (EC50) is 27.7 nM.

On to `CCCCCCCC/C=C\CCCCCCCC(=O)OC(CO)CO` [2-OG], for which the 50% effective concentration (EC50) was found to be 4900 nM.

`CC(C)c1noc(C2CCN(c3ncnc(Nc4ccc(S(C)(=O)=O)cc4F)c3[N+](=O)[O-])CC2)n1` [AR231453]: the EC50 (partial agonist) worked out at 1.2 nM.

The EC50 is the concentration needed to bring the measured effect to its halfway point.
